Laboratory results as given in ChEMBL document CHEMBL3739381, “Evaluation of the anti-inflammatory/chondroprotective activity of aldose reductase inhibitors in human chondrocyte cultures” (Medchemcomm, 2015).
Active and inactive are the calls of the source. The rule behind the calls is not given here.

Assays:
[1] = Cytotoxicity against human articular chondrocytes assessed as cell viability at 2.5 to 10 uM by MTT assay
[2] = species: Homo sapiens; test: Anti-inflammatory in human articular chondrocytes assessed as inhibition of IL-1beta-induced NFkappa-B p65 production at 2.5 to 10 uM after 72 hrs by Western blot analysis; type: functional, cell-based
[3] = species: Homo sapiens; test: Anti-inflammatory in human articular chondrocytes assessed as inhibition of IL-1beta-induced ICAM-1 production at 2.5 to 10 uM after 72 hrs by Western blot analysis; type: functional, cell-based
[4] = species: Homo sapiens; test: Anti-inflammatory in human articular chondrocytes assessed as inhibition of IL-1beta-induced nitrite production after 72 hrs by Griess assay; type: functional, cell-based
[5] = species: Homo sapiens; test: Anti-inflammatory in human articular chondrocytes assessed as inhibition of IL-1beta-induced reduction of GAG level after 72 hrs by spectrophotometry analysis; type: functional, cell-based
[6] = Antioxidant activity of the compound in AAPH solution assessed as trolox equivalents for reduction of oxidative degradation by ORAC assay; type: physicochemical
[7] = target: Stromelysin-1 (Homo sapiens, UniProt P08254); test: Inhibition of MMP3 (unknown origin) using Pro-Leu-Gly-Leu-Dpa-Ala-Arg-NH2 as substrate after 3 mins by fluorimetric assay
[8] = target: Collagenase 3 (Homo sapiens, UniProt P45452); test: Inhibition of MMP13 (unknown origin) using Pro-Leu-Gly-Leu-Dpa-Ala-Arg-NH2 as substrate after 3 mins by fluorimetric assay

Stromelysin-1, sequence (P08254 whole entry): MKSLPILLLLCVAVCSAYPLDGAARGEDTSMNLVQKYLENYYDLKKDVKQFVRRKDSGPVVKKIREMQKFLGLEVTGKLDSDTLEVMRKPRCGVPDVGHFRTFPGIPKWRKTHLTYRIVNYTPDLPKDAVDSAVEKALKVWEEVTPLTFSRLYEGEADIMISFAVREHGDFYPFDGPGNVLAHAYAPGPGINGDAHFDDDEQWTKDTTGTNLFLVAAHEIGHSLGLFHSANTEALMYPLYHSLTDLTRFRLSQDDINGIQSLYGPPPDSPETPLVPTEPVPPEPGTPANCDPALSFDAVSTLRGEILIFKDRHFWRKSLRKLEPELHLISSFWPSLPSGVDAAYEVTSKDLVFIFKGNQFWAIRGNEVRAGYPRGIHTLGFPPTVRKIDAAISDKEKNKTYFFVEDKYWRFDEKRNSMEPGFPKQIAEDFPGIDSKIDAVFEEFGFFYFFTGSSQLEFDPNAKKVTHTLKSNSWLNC

| Compound | Activity [6] [µM] | IC50 ([7]; read-out: IC50) [µM] | IC50 [8] [µM] | IC50 [7] | Activity [1] | inhibition [2] | inhibition [3] | inhibition [4] | inhibition [5] |
| --- | --- | --- | --- | --- | --- | --- | --- | --- | --- |
| O=C(O)CN1C(=O)/C(=C/c2ccc(OCc3ccccc3)cc2)SC1=S | 1.078 | 58.5 | 6.97 |  | Non-toxic | Active | Active | Dose-dependent effect | Dose-dependent effect |
| O=C(O)CN1C(=O)/C(=C/c2cccc(Oc3ccccc3)c2)SC1=S | 0.61 | 14.2 | 4.7 |  | Non-toxic | Active | Active | Dose-dependent effect | Dose-dependent effect |
| O=C1NC(=S)S/C1=C\c1cccc(Oc2ccccc2)c1 | 0.39 | 17.5 | 55.3 |  | Non-toxic | Active | Active | Dose-dependent effect | Dose-dependent effect |
| O=C1NC(=S)S/C1=C\c1cccc(OCc2ccccc2)c1 | 0.63 |  | 5.89 | Not Active | Non-toxic | Active | Active | Dose-dependent effect | Dose-dependent effect |

These reach a lower IC50 [8]. Values come first.

| Activity [6] [µM] | IC50 ([7]; read-out: IC50) [µM] | IC50 [8] [µM] | IC50 [7] | Compound | Activity [1] | inhibition [2] | inhibition [3] | inhibition [4] | inhibition [5] |
| --- | --- | --- | --- | --- | --- | --- | --- | --- | --- |
| 0.52 | 48.4 | 3.99 |  | O=C1NC(=S)S/C1=C\c1ccc(Oc2ccccc2)cc1 | Non-toxic | Active | Active | Dose-dependent effect | Dose-dependent effect |
| 0.76 | 8.96 | 3.8 |  | O=C(O)CN1C(=O)/C(=C/c2ccc(Oc3ccccc3)cc2)SC1=S | Non-toxic | Active | Active | Dose-dependent effect | Dose-dependent effect |
| 0.65 | 4.19 | 1.59 |  | O=C(O)CN1C(=O)/C(=C/c2cccc(OCc3ccccc3)c2)SC1=S | Non-toxic | Active | Active | Dose-dependent effect | Dose-dependent effect |
| 0.6 | 77.4 | 0.64 |  | O=C1NC(=S)S/C1=C\c1ccc(OCc2ccccc2)cc1 | Non-toxic | Active | Active | Dose-dependent effect | Dose-dependent effect |
